pEC50: −log10 of the molar value.

The assay deals with HT-29 cells. Briefly: HT29 Cells 0FBS Assay In Vitro (TNF-α/SMAC mimetic/zVAD-FMK induced necroptosis, CellTiter-Glo cell viability). The following applies: Homo sapiens; HT-29 cells, FBS free medium, TNF-α (10 ng/ml), SMAC mimetic (6 uM), zVAD-FMK (10 μM), 20 hours; geometric mean EC50; read-out: Cell activity (EC50) of Compounds 1-116. Format: cell-based. From the text: Protocol for HT29 Cells 0FBS Assay In Vitro
• Cell line: HT-29 (ATCC® HTB-38™) • Culture medium: McCOY's 5 A, Gibco, Cat No. 16600-082 • FBS, Gibco, Cat No. 10099-141C • Trypsin: Gibco, Cat No. 25200-056 • DMSO: Sigma, Cat No. 67-68-5, 1 L • Assay plate: Corning #3903 • Compound dilution plate: Corning #3357 • Inducers: TNFα, GenScript, Cat No. ZO1001-50, • SmacM, Cat. No., HY-15989, MedChemExpress (MCE) • Z_VAD FMK, TargetMol, T6013 • Cell Titer-Glo® Luminescent Cell Viability Assay Kit: Promega, Cat No. G7573 • EnVision: PerkinElmer, 2105-0010 2. Cell Seeding of HT-29 Cells • 1) HT-29 cells were checked every day to make sure they are healthy and growing as expected. They were split sub-culturing when were approximately 80% confluent. • 2) First pre-warm the culture medium of McCOY's 5 A medium (Gibco, Cat No. 16600-082) with 10% FBS (Gibco, Cat No. 10099-141C) in 37° C. water bath for at least 30 min. • 3) Growing cells to desired level of confluency 80% in a T75 flask, aspirate the medium, and wash with warm PBS two times. • 4) Add 2-3 ml fresh warm trypsin (Gibco, Cat No. 25200-056) solution. Transfer the flask to a 37° C. incubator. • 5) After 5 minutes, tap the side of the flask, and examine the flask under a microscope for lifting. If necessary, return the cells to the incubator for an additional 5-10 minutes, with occasional tapping, until lifting is complete. • 6) Quickly neutralize the trypsin reaction by adding 6-9 ml cell culture medium, then transfer the cells to sterile 15 ml conical tubes. Pellet the cells by centrifugation at 300×g for 7 minutes, then decant the supernatant. • 7) Resuspend the cells in fresh cell culture medium. Do cell counting with hemocytometer. • 8) Seed 100 μl of 5,000 cells into each well of the sterile 96-well cell culture plate (Corning 3903) and culture overnight at 37° C. with 5% C02. 3. Compounds Titration and Treatment of HT-29 Cells • 1) All batches of compounds (CPDs) (e.g., compound 1-281) were dissolved in DMSO (Dimethyl sulfoxide) as 20 mM stock solution. • 2) Take 3 ul 20 mM stock solution of CPDs to 27 ul DMSO and mix well, continue the titration ratio of 1:3 (20 ul CPDs+40 ul DMSO), e.g., to give solutions of CPDS at 6.6 mM, 2.2 mM, etc., till the 10 points end. • 3) Take out assay plates with HT-29 cells from incubator, remove all culture medium then wash 1 time with 1×PBS, and change fresh McCOY's 5 A medium of FBS free with a cocktail of TNF-α (10 ng/ml), the SMAC mimetic (6 uM) and zVAD-FMK (10 μM) to stimulate the HT-29 cells to increase pRIPK1 levels and necroptosis. • 4) Add 0.5 μL of the diluted compound to the corresponding 96-well assay plates. • 5) Incubate the assay plates for 20 hours at 37° C. with 5% C02. 4. Performing Cell Viability Detection of HT-29 Cells after Treated with Compounds • 1) The CellTiter-Glo® Luminescent Cell Viability Assay was employed to detect the ATP levels of viable HT-29 cells. • 2) Equilibrate the CellTiter-Glo® buffer and the lyophilized substrate to room temperature prior to use. • 3) Resuspend the CellTiter-Glo® substrate with CellTiter-Glo® buffer, mix by gently vortexing to obtain a homogeneous solution. • 4) Pipette 20 μl the enzyme/substrate mixture by multi-channel pipette into the 96-well assay plates from step 5) under the Compounds titration and treatment stage. • 5) Place the plates on an orbital shaker and mix the contents for 3 minutes to induce cell lysis. • 6) Then allow the plates to incubate at room temperature for 10 minutes to stabilize luminescent signal. • 7) Read and record luminescence signal with EnVision. • 8) The geometric mean EC50 of the compounds were calculated from points response dose with duplicate. In Tables 2 and 4, activity is provided as follows: +++=0.1 nM≤EC50<100 nM; ++=100 nM≤EC50<1000 nM; +=1000 nM≤EC50<10000 nM.
On the technique in general: Cellular ATP, detected with luciferase, serves as a proxy for viable cell number.
On to `Cn1ccc(-c2ncc(F)c(OC3CN(C(=O)N4N=CC[C@H]4c4cc(F)cc(F)c4)C3)n2)n1` [compound 39, (S)-(5-(3,5-difluorophenyl)-4,5-dihydro-1H-pyrazol-1-yl)(3-((5-fluoro-2-(1-methyl-1H-pyrazol-3-yl)pyrimidin-4-yl)oxy)azetidin-1-yl)methanone], for which the pEC50 was 6.00 to 7.00. For the molecule `Cc1cn(C)c(-c2cc(OC3CN(C(=O)N4N=CC[C@H]4c4cc(F)cc(F)c4)C3)c(F)cn2)n1` [compound 40, (S)-(5-(3,5-difluorophenyl)-4,5-dihydro-1H-pyrazol-1-yl)(3-((2-(1,4-dimethyl-1H-imidazol-2-yl)-5-fluoropyridin-4-yl)oxy)azetidin-1-yl)methanone], the pEC50 is 7.00 to 10.00.

As for `Cn1nc(N)cc1-c1cc(OC2CN(C(=O)N3N=CC[C@H]3c3cc(F)cc(F)c3)C2)c(F)cn1` [compound 41, (S)-(3-((2-(3-amino-1-methyl-1H-pyrazol-5-yl)-5-fluoropyridin-4-yl)oxy)azetidin-1-yl)(5-(3,5-difluorophenyl)-4,5-dihydro-1H-pyrazol-1-yl)methanone], the pEC50 is 7.00 to 10.00. The result for `Cc1cnn(C)c1-c1ncc(F)c(OC2CN(C(=O)N3N=CC[C@H]3c3cc(F)cc(F)c3)C2)n1` [compound 42, (S)-(5-(3,5-difluorophenyl)-4,5-dihydro-1H-pyrazol-1-yl)(3-((2-(1,4-dimethyl-1H-pyrazol-5-yl)-5-fluoropyrimidin-4-yl)oxy)azetidin-1-yl)methanone] reads 7.00 to 10.00. With `Cc1cnn(C)c1-c1cc(OC2CN(C(=O)N3N=CC[C@H]3c3cc(F)cc(F)c3)C2)c(F)cn1` [compound 43, (S)-(5-(3,5-difluorophenyl)-4,5-dihydro-1H-pyrazol-1-yl)(3-((2-(1,4-dimethyl-1H-pyrazol-5-yl)-5-fluoropyridin-4-yl)oxy)azetidin-1-yl)methanone], the pEC50 is 7.00 to 10.00. Turning to `Cc1ncn(C)c1-c1ccc(F)c(OC2CN(C(=O)N3N=CC[C@H]3c3cc(F)cc(F)c3)C2)n1` [compound 44, (S)-(5-(3,5-difluorophenyl)-4,5-dihydro-1H-pyrazol-1-yl)(3-((6-(1,4-dimethyl-1H-imidazol-5-yl)-3-fluoropyridin-2-yl)oxy)azetidin-1-yl)methanone], the pEC50 was 7.00 to 10.00.

For the molecule `Cc1ncn(C)c1-c1cc(OC2CN(C(=O)N3N=CC[C@H]3c3cc(F)cc(F)c3)C2)c(F)cn1` [compound 45, (S)-(5-(3,5-difluorophenyl)-4,5-dihydro-1H-pyrazol-1-yl)(3-((2-(1,4-dimethyl-1H-imidazol-5-yl)-5-fluoropyridin-4-yl)oxy)azetidin-1-yl)methanone], the pEC50 was 7.00 to 10.00. As for `Cc1nnn(C)c1-c1ncc(F)c(OC2CN(C(=O)N3N=CC[C@H]3c3cc(F)cc(F)c3)C2)n1` [compound 46, (S)-(5-(3,5-difluorophenyl)-4,5-dihydro-1H-pyrazol-1-yl)(3-((2-(1,4-dimethyl-1H-1,2,3-triazol-5-yl)-5-fluoropyrimidin-4-yl)oxy)azetidin-1-yl)methanone], the figure is 7.00 to 10.00; as for `Cc1nnn(C)c1-c1cc(OC2CN(C(=O)N3N=CC[C@H]3c3cc(F)cc(F)c3)C2)c(F)cn1` [compound 47, (S)-(5-(3,5-difluorophenyl)-4,5-dihydro-1H-pyrazol-1-yl)(3-((2-(1,4-dimethyl-1H-1,2,3-triazol-5-yl)-5-fluoropyridin-4-yl)oxy)azetidin-1-yl)methanone], 7.00 to 10.00; as for `Cn1ncc(C#N)c1-c1ncc(F)c(OC2CN(C(=O)N3N=CC[C@H]3c3cc(F)cc(F)c3)C2)n1` [compound 48, (S)-5-(4-((1-(5-(3,5-difluorophenyl)-4,5-dihydro-1H-pyrazole-1-carbonyl)azetidin-3-yl)oxy)-5-fluoropyrimidin-2-yl)-1-methyl-1H-pyrazole-4-carbonitrile], 7.00 to 10.00. As for `Cn1ncc(C#N)c1-c1cc(OC2CN(C(=O)N3N=CC[C@H]3c3cc(F)cc(F)c3)C2)c(F)cn1` [compound 49, (S)-5-(4-((1-(5-(3,5-difluorophenyl)-4,5-dihydro-1H-pyrazole-1-carbonyl)azetidin-3-yl)oxy)-5-fluoropyridin-2-yl)-1-methyl-1H-pyrazole-4-carbonitrile], the pEC50 is 7.00 to 10.00.

Consider `COc1cnn(C)c1-c1cc(OC2CN(C(=O)N3N=CC[C@H]3c3cc(F)cc(F)c3)C2)c(F)cn1` [compound 50, (S)-(5-(3,5-difluorophenyl)-4,5-dihydro-1H-pyrazol-1-yl)(3-((5-fluoro-2-(4-methoxy-1-methyl-1H-pyrazol-5-yl)pyridin-4-yl)oxy)azetidin-1-yl)methanone], for which the pEC50 is 7.00 to 10.00. As for `CN(C)CCOc1cnn(C)c1-c1cc(OC2CN(C(=O)N3N=CC[C@H]3c3cc(F)cc(F)c3)C2)c(F)cn1` [compound 51, (S)-(5-(3,5-difluorophenyl)-4,5-dihydro-1H-pyrazol-1-yl)(3-((2-(4-(2-(dimethylamino)ethoxy)-1-methyl-1H-pyrazol-5-yl)-5-fluoropyridin-4-yl)oxy)azetidin-1-yl)methanone], the figure is 6.00 to 7.00; as for `COCCOc1cnn(C)c1-c1cc(OC2CN(C(=O)N3N=CC[C@H]3c3cc(F)cc(F)c3)C2)c(F)cn1` [compound 52, (S)-(5-(3,5-difluorophenyl)-4,5-dihydro-1H-pyrazol-1-yl)(3-((5-fluoro-2-(4-(2-methoxyethoxy)-1-methyl-1H-pyrazol-5-yl)pyridin-4-yl)oxy)azetidin-1-yl)methanone], 7.00 to 10.00; as for `Cn1ncc(N)c1-c1cc(OC2CN(C(=O)N3N=CC[C@H]3c3cc(F)cc(F)c3)C2)c(F)cn1` [compound 53, (S)-(3-((2-(4-amino-1-methyl-1H-pyrazol-5-yl)-5-fluoropyridin-4-yl)oxy)azetidin-1-yl)(5-(3,5-difluorophenyl)-4,5-dihydro-1H-pyrazol-1-yl)methanone], 7.00 to 10.00. The result for `CNc1cnn(C)c1-c1cc(OC2CN(C(=O)N3N=CC[C@H]3c3cc(F)cc(F)c3)C2)c(F)cn1` [compound 54, (S)-(5-(3,5-difluorophenyl)-4,5-dihydro-1H-pyrazol-1-yl)(3-((5-fluoro-2-(1-methyl-4-(methylamino)-1H-pyrazol-5-yl)pyridin-4-yl)oxy)azetidin-1-yl)methanone] reads 7.00 to 10.00. Take `CN(C)c1cnn(C)c1-c1cc(OC2CN(C(=O)N3N=CC[C@H]3c3cc(F)cc(F)c3)C2)c(F)cn1` [compound 55, (S)-(5-(3,5-difluorophenyl)-4,5-dihydro-1H-pyrazol-1-yl)(3-((2-(4-(dimethylamino)-1-methyl-1H-pyrazol-5-yl)-5-fluoropyridin-4-yl)oxy)azetidin-1-yl)methanone]: the pEC50 is 7.00 to 10.00. As for `COCCNc1cnn(C)c1-c1cc(OC2CN(C(=O)N3N=CC[C@H]3c3cc(F)cc(F)c3)C2)c(F)cn1` [compound 56, (S)-(5-(3,5-difluorophenyl)-4,5-dihydro-1H-pyrazol-1-yl)(3-((5-fluoro-2-(4-((2-methoxyethyl)amino)-1-methyl-1H-pyrazol-5-yl)pyridin-4-yl)oxy)azetidin-1-yl)methanone], the pEC50 is 7.00 to 10.00.

What is called pEC50 is the EC50 on a negative log10 scale, so that one unit is a factor of ten.
